Test results published in ChEMBL document CHEMBL4177668, “Synthesis and biological evaluation of thiazole derivatives as GPR119 agonists” (Bioorg Med Chem Lett, 2017).
Values belong to the compound of their own block, whether it stands above or below them. Active and inactive are the calls of the source. The rule behind the calls is not given here.

How the values were obtained:
[1] = target: T1, Glucose-dependent insulinotropic receptor (Homo sapiens) (UniProt Q8TDV5); assay: Activation of human GPR119 expressed in CHOK1 cells co-expressing CRE-luciferase at 1 uM after 6 hrs by luciferase reporter gene assay relative to GSK1292263; type: functional, cell-based
T1 sequence (whole entry): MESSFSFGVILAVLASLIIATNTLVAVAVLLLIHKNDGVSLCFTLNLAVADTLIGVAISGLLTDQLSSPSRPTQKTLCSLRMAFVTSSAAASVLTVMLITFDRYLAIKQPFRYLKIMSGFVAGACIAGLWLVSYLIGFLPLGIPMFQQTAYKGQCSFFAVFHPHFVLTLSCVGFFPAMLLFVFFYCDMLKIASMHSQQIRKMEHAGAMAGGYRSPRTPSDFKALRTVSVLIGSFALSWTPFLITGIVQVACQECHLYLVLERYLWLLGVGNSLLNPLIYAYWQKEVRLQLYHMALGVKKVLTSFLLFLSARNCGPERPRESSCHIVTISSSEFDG

[2] = target: T2, Glucose-dependent insulinotropic receptor (Homo sapiens, UniProt Q8TDV5); assay: Agonist activity at human GPR119 expressed in CHOK1 cells co-expressing CRE-luciferase after 6 hrs by luciferase reporter gene assay; type: functional, cell-based
T2 sequence (Q8TDV5 whole entry): T1 sequence (whole entry)

Cytochrome P450 2C19 = Cytochrome P450 2C19 (Homo sapiens, UniProt P33261); assay: Inhibition of CYP2C19 (unknown origin); type: ADME
HFL1 = assay: Cytotoxicity against HFL1 cells; type: cell-based; conditions: Homo sapiens
[3] = Metabolic stability in rat liver microsomes assessed as compound remaining after 30 mins; type: ADME, microsome; conditions: read-out: Stability
Vero = assay: Cytotoxicity against African green monkey Vero cells; type: cell-based; conditions: Chlorocebus sabaeus
Mus musculus = assay: Antidiabetic activity in C57BL/6 mouse assessed as decrease in plasma glucose AUC at 30 mg/kg, po pretreated for 30 mins followed by glucose challenge measured up to 120 mins by oGTT assay; type: functional, organism-based
Cytochrome P450 2D6 = Cytochrome P450 2D6 (Homo sapiens, UniProt P10635); assay: Inhibition of CYP2D6 (unknown origin); type: ADME
hERG (KCNH2) = hERG (KCNH2) (Homo sapiens, UniProt Q12809); assay: Inhibition of human ERG at 10 uM
Cytochrome P450 1A2 = target: T3, Cytochrome P450 1A2 (Homo sapiens, UniProt P05177); assay: Inhibition of CYP1A2 (unknown origin); type: ADME
T3 sequence (P05177 whole entry): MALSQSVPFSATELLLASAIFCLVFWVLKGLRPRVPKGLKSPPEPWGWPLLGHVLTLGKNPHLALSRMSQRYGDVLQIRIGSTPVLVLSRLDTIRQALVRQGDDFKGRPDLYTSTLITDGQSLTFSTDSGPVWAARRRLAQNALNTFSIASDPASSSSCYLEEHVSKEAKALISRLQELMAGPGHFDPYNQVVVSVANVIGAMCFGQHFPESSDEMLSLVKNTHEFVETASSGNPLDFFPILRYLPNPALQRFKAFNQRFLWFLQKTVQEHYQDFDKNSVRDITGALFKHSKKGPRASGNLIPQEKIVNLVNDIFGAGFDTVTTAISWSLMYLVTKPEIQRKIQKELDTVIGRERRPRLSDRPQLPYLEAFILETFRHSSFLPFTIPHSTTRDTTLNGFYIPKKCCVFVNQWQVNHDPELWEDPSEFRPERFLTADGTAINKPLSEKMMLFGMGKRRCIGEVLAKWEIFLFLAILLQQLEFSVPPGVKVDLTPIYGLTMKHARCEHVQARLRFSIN

L929 = assay: Cytotoxicity against mouse L929 cells; type: cell-based
[4] = Metabolic stability in human liver microsomes assessed as compound remaining after 30 mins; type: ADME, microsome; conditions: read-out: Stability
NIH3T3 = assay: Cytotoxicity against mouse NIH/3T3 cells; type: cell-based
Cytochrome P450 3A4 = Cytochrome P450 3A4 (Homo sapiens, UniProt P08684); assay: Inhibition of CYP3A4 (unknown origin); type: ADME
CHO-K1 = assay: Cytotoxicity against CHOK1 cells; type: cell-based; conditions: Cricetulus griseus
Cytochrome P450 2A6 = target: T4, Cytochrome P450 2A6 (Homo sapiens, UniProt P11509); assay: Inhibition of CYP2A6 (unknown origin); type: ADME
T4 sequence (P11509 whole entry): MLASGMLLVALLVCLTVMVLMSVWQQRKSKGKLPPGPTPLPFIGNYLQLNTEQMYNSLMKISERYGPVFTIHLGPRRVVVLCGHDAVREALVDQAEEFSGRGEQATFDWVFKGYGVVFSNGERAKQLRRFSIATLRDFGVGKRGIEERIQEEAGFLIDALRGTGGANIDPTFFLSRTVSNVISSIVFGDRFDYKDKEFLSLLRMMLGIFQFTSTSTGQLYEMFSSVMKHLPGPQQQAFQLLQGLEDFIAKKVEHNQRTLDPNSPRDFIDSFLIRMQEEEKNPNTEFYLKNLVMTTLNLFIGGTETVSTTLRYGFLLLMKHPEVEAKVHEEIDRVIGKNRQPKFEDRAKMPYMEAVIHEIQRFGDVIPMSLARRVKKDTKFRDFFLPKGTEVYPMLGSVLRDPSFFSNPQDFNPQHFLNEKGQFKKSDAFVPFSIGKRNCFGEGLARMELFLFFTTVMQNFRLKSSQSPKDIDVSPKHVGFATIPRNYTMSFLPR

Sequence of hERG (KCNH2) (Q12809 whole entry): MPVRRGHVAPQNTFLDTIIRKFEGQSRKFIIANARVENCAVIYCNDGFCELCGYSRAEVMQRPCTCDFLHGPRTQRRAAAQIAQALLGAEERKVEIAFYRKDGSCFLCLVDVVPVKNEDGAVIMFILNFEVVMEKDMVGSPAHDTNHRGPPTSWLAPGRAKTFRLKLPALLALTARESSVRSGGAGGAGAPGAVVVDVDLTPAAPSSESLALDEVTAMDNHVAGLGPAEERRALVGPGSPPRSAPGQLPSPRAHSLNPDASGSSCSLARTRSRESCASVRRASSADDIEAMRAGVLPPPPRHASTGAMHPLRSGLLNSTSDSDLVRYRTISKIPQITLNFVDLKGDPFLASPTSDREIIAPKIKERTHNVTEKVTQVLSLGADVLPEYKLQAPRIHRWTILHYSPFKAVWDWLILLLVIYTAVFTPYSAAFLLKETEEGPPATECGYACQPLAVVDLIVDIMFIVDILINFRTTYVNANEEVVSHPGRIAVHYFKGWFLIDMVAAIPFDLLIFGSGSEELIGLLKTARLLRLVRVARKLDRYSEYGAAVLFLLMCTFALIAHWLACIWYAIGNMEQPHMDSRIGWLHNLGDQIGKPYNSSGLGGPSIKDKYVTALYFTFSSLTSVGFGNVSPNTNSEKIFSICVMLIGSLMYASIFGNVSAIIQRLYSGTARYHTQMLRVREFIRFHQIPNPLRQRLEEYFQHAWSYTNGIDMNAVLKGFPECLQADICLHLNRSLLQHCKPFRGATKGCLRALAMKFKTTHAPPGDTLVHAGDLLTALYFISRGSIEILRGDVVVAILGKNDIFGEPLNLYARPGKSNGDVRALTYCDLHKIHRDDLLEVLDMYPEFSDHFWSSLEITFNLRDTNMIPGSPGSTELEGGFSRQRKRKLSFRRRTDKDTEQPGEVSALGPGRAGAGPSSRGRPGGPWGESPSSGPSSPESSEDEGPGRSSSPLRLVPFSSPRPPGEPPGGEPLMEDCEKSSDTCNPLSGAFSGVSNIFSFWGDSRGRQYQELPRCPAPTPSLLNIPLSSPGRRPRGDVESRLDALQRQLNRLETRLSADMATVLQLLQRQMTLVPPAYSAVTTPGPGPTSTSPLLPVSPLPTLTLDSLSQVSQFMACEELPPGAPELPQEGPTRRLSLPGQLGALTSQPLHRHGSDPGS
Sequence of Cytochrome P450 3A4 (P08684 whole entry): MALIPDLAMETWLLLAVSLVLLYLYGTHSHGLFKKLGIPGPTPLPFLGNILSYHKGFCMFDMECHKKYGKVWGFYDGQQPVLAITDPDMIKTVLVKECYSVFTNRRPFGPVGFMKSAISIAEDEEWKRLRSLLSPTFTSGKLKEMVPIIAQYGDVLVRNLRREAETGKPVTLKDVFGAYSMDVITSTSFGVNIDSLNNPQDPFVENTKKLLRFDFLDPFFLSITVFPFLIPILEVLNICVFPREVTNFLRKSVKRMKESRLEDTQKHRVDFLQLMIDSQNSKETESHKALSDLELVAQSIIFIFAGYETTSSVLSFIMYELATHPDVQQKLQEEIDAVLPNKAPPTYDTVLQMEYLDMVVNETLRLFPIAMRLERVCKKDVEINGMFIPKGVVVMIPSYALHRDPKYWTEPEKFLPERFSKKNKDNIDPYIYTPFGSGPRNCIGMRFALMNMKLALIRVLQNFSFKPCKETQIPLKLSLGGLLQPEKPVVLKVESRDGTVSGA
Sequence of Cytochrome P450 2D6 (P10635 whole entry): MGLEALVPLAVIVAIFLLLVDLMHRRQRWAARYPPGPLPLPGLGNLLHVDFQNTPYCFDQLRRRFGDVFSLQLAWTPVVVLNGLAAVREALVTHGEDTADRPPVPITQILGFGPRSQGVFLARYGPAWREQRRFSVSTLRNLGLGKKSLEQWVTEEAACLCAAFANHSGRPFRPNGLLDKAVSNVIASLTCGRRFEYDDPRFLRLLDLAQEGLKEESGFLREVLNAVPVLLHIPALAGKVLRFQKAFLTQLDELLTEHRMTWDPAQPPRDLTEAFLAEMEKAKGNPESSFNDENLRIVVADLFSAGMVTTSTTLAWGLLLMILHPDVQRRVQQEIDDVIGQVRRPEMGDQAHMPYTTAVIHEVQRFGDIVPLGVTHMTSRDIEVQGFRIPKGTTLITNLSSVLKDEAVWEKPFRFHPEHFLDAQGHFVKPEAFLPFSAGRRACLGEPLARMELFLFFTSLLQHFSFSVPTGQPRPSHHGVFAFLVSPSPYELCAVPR
Sequence of Cytochrome P450 2C19 (P33261 whole entry): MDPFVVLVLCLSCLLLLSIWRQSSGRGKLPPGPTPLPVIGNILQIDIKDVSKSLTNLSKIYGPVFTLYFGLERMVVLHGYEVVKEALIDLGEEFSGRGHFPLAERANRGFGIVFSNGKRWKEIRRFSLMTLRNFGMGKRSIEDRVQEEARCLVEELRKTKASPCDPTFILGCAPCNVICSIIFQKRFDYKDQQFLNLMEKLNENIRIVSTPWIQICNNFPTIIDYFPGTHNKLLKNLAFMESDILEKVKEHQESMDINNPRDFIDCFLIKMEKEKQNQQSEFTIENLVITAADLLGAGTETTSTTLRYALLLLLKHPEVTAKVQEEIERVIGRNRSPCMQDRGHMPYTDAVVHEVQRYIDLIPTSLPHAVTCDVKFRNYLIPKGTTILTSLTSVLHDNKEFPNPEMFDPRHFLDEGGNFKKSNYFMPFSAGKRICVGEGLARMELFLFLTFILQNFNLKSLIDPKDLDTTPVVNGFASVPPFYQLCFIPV

Activity [1]: 46%
Structure (SMILES): Cc1cc(/C=C2\CC(=O)NC2=O)ccc1OCc1csc(C2CCN(CC(C)(C)F)CC2)n1

Activity [1]: 36%
Structure (SMILES): Cc1cc(/C=C2\CC(=O)NC2=O)ccc1OCc1csc(C2CCN(CC(C)(C)O)CC2)n1

EC50 [2]: 19 nM | Activity [1]: 81%
Structure (SMILES): Cc1cc(/C=C2\CC(=O)NC2=O)ccc1OCc1csc(C2CCN(C(=O)OC(C)(C)C)CC2)n1

Activity [1]: 55%
Structure (SMILES): CCc1cnc(N2CCC(c3nc(COc4ccc(/C=C/C(=O)O)cc4F)cs3)CC2)nc1

Activity [1]: 63%
Structure (SMILES): CCc1cnc(N2CCC(c3nc(COc4ccc(/C=C5\CC(=O)N(CCNC(=O)OC(C)(C)C)C5=O)cc4F)cs3)CC2)nc1

EC50 [2]: 211 nM | Activity [1]: 59%
Structure (SMILES): CCc1cnc(N2CCC(c3nc(COc4c(F)cc(/C=C5\CC(=O)NC5=O)cc4F)cs3)CC2)nc1

Activity [1]: 51%
Structure (SMILES): CCc1cnc(N2CCC(c3nc(COc4ccc(/C=C5\CC(=O)N(CCN)C5=O)cc4F)cs3)CC2)nc1

Activity [1]: 27%
Structure (SMILES): CC(C)(O)CN1CCC(c2nc(COc3ccc(/C=C4\CC(=O)NC4=O)cc3)cs2)CC1

EC50 [2]: 780 nM | Activity [1]: 60%
Structure (SMILES): CCc1cnc(N2CCC(c3nc(COc4ccc(/C=C5\SC(=O)NC5=O)cc4F)cs3)CC2)nc1

Activity [1]: 43%
Structure (SMILES): CCc1cnc(N2CCC(c3nc(COc4ccc(/C=C5\SC(=S)N(N)C5=O)cc4F)cs3)CC2)nc1

INH (Cytochrome P450 2C19): > 100 µM | EC50 [2]: 87 nM | Activity [1]: 91% | remaining at 0.5 h [3]: 20.6% | INH (Cytochrome P450 2D6): > 100 µM | INH (Cytochrome P450 1A2): > 100 µM | remaining at 0.5 h [4]: 7.8% | INH (Cytochrome P450 3A4): 2.24 µM | INH (Cytochrome P450 2A6): 3.53 µM
Structure (SMILES): CCc1cnc(N2CCC(c3nc(COc4ccc(-n5cnnn5)cc4)cs3)CC2)nc1 [MBX-2982]
IC50 (HFL1): > 100 µM | IC50 (Vero): > 100 µM | Activity (Mus musculus): Active | inhibition at 10 µM (hERG (KCNH2)): 10.5% | IC50 (L929): > 100 µM | IC50 (NIH3T3): > 100 µM | IC50 (CHO-K1): > 100 µM

EC50 [2]: 240 nM | Activity [1]: 61%
Structure (SMILES): CCc1cnc(N2CCC(c3nc(COc4ccc(/C=C5\CC(=O)N(CC6CCOCC6)C5=O)cc4F)cs3)CC2)nc1

EC50 [2]: 100 nM | Activity [1]: 65%
Structure (SMILES): CCc1cnc(N2CCC(c3nc(COc4ccc(/C=C5\CCNC5=O)cc4F)cs3)CC2)nc1

EC50 [2]: 157 nM | Activity [1]: 69%
Structure (SMILES): CC(C)(C)OC(=O)N1CCC(c2nc(COc3ccc(/C=C4\CC(=O)NC4=O)cc3F)cs2)CC1

Activity [1]: 31%
Structure (SMILES): CC(C)(O)CN1CCC(c2nc(COc3ccc(/C=C4\CC(=O)NC4=O)cc3F)cs2)CC1

Activity [1]: 32%
Structure (SMILES): CC(C)(O)CN1CCC(c2nc(COc3c(F)cc(/C=C4\CC(=O)NC4=O)cc3F)cs2)CC1

Activity [1]: 48%
Structure (SMILES): CC(C)(F)CN1CCC(c2nc(COc3ccc(/C=C4\CC(=O)NC4=O)cc3)cs2)CC1

Activity [1]: 42%
Structure (SMILES): CC(C)(F)CN1CCC(c2nc(COc3c(F)cc(/C=C4\CC(=O)NC4=O)cc3F)cs2)CC1

The remaining lines, values behind:

Structure (SMILES): CCc1cnc(N2CCC(c3nc(COc4ccc(/C=C5\CC(=O)N(c6ccccc6)C5=O)cc4F)cs3)CC2)nc1
EC50 [2]: 82 nM | Activity [1]: 67%

Structure (SMILES): CC(C)(C)OC(=O)NCCNC(=O)CCc1cnc(N2CCC(c3nc(COc4ccc(-n5cnnn5)cc4)cs3)CC2)nc1
Activity [1]: 30%

Structure (SMILES): CCc1cnc(N2CCC(c3nc(COc4ccc(/C=C5\CC(=O)NC5=O)cc4F)cs3)CC2)nc1
INH (Cytochrome P450 2C19): > 100 µM | EC50 [2]: 49 nM | Activity [1]: 94% | IC50 (HFL1): > 100 µM | remaining at 0.5 h [3]: 33% | IC50 (Vero): > 100 µM | Activity (Mus musculus): Active | INH (Cytochrome P450 2D6): > 100 µM | inhibition at 10 µM (hERG (KCNH2)): 5.3% | INH (Cytochrome P450 1A2): > 100 µM | IC50 (L929): > 100 µM | remaining at 0.5 h [4]: 48.9% | IC50 (NIH3T3): > 100 µM | INH (Cytochrome P450 3A4): > 100 µM | IC50 (CHO-K1): > 100 µM | INH (Cytochrome P450 2A6): > 100 µM

Structure (SMILES): CC(C)(C)OC(=O)N1CCC(c2nc(COc3c(F)cc(/C=C4\CC(=O)NC4=O)cc3F)cs2)CC1
Activity [1]: 41%

Structure (SMILES): NC(=O)CCc1cnc(N2CCC(c3nc(COc4ccc(-n5cnnn5)cc4)cs3)CC2)nc1
Activity [1]: 22%

Structure (SMILES): CCc1cnc(N2CCC(c3nc(COc4ccc(/C=C5\CC(=O)NC5=O)cc4)cs3)CC2)nc1
EC50 [2]: 182 nM | Activity [1]: 71%

Structure (SMILES): [N-]=[N+]=NCCOCCOCCOCCNC(=O)CCc1cnc(N2CCC(c3nc(COc4ccc(-n5cnnn5)cc4)cs3)CC2)nc1
Activity [1]: 25%

Structure (SMILES): O=C(O)CCc1cnc(N2CCC(c3nc(COc4ccc(-n5cnnn5)cc4)cs3)CC2)nc1
Activity [1]: 29%

Structure (SMILES): CC(C)(C)OC(=O)N1CCC(c2nc(COc3ccc(/C=C4\CC(=O)NC4=O)cc3)cs2)CC1
Activity [1]: 57%

Structure (SMILES): CC(C)(C)OC(=O)N1CCC(c2nc(COc3ccc(-n4cnnn4)cc3)cs2)CC1
EC50 [2]: 103 nM | Activity [1]: 118%

Structure (SMILES): CC(C)(F)CN1CCC(c2nc(COc3ccc(/C=C4\CC(=O)NC4=O)cc3F)cs2)CC1
Activity [1]: 53%

Structure (SMILES): CCc1cnc(N2CCC(c3nc(COc4ccc(/C=C5\CC(=S)N(CC(=O)O)C5=O)cc4F)cs3)CC2)nc1
Activity [1]: 32%

Structure (SMILES): C[N+](C)(C)CCNC(=O)CCc1cnc(N2CCC(c3nc(COc4ccc(-n5cnnn5)cc4)cs3)CC2)nc1
Activity [1]: 28%

Structure (SMILES): CCc1cnc(N2CCC(c3nc(COc4ccc(/C=C5\CC(=O)N(CCN6CCOCC6)C5=O)cc4F)cs3)CC2)nc1
Activity [1]: 49%

Structure (SMILES): CCOC(=O)CCc1cnc(N2CCC(c3nc(COc4ccc(-n5cnnn5)cc4)cs3)CC2)nc1
Activity [1]: 34%

Structure (SMILES): N=C(N)NC(=N)N1CCC(c2nc(COc3ccc(-n4cnnn4)cc3)cs2)CC1
Activity [1]: 20%

Structure (SMILES): CCc1cnc(N2CCC(c3nc(COc4ccc(/C=C5\SC(=S)NC5=O)cc4F)cs3)CC2)nc1
Activity [1]: 39%

Structure (SMILES): NCCOCCOCCOCCNC(=O)CCc1cnc(N2CCC(c3nc(COc4ccc(-n5cnnn5)cc4)cs3)CC2)nc1
Activity [1]: 28%

Structure (SMILES): O=C(CCc1cnc(N2CCC(c3nc(COc4ccc(-n5cnnn5)cc4)cs3)CC2)nc1)NOCc1ccccc1
Activity [1]: 26%

Structure (SMILES): NCCNC(=O)CCc1cnc(N2CCC(c3nc(COc4ccc(-n5cnnn5)cc4)cs3)CC2)nc1
Activity [1]: 27%
